Reference: ChEMBL document CHEMBL4382198, “Discovery of Risdiplam, a Selective Survival of Motor Neuron-2 ( SMN2) Gene Splicing Modifier for the Treatment of Spinal Muscular Atrophy (SMA)” (J Med Chem, 2018)
One block for each compound: values may come before it.

Experiments:
Homo sapiens [1] = organism: Homo sapiens; assay: Activation of human full length SMN2 mRNA expressed in human SMA-derived fibroblasts by RT-qPCR analysis
[2] = target: Survival motor neuron protein (Homo sapiens) (UniProt Q16637); assay: Activation of SMN protein in human SMA-derived fibroblasts after 48 hrs by HTRF assay
in vivo = details: rat
[3] = Effect on FOXM1b/c mRNA splicing in human induced pluripotent stem cells by RT-qPCR analysis; format: ADME
[4] = Effect on FOXM1b/c mRNA splicing in cynomolgus monkey induced pluripotent stem cells by RT-qPCR analysis; format: ADME, Macaca fascicularis
[5] = Effect on human FOXM1b/c mRNA splicing expressed in human SMA-derived fibroblasts by RT-qPCR analysis; format: ADME
[6] = Drug metabolism in po dosed rat plasma assessed as dealkylated 2-(4-ethyl-6-methylpyrazolo[1,5-a]pyrazin-2-yl)-9-methyl-7-(piperidin-4-yl)-4H-pyrido[1,2-a]pyrimidin-4-one metabolite formation; format: ADME, organism-based; details: in vivo
[7] = Drug metabolism in po dosed mouse plasma assessed as dealkylated 2-(4-ethyl-6-methylpyrazolo[1,5-a]pyrazin-2-yl)-9-methyl-7-(piperidin-4-yl)-4H-pyrido[1,2-a]pyrimidin-4-one metabolite formation; format: ADME, organism-based; details: in vivo
[8] = Efflux ratio of permeability in human SMA-derived fibroblasts; format: ADME, cell-based, Fibroblast; details: not told
[9] = Drug metabolism in po dosed cynomolgus monkey plasma assessed as dealkylated 2-(4-ethyl-6-methylpyrazolo[1,5-a]pyrazin-2-yl)-9-methyl-7-(piperidin-4-yl)-4H-pyrido[1,2-a]pyrimidin-4-one metabolite formation; format: ADME, organism-based, Macaca fascicularis; details: in vivo
[10] = Efflux ratio of permeability in mouse 3T3 cells; format: ADME, cell-based, NIH3T3
[11] = Tmax in human; format: ADME
[12] = Terminal half life in human; format: ADME; details: read-out: beta t1/2 (converted)
Homo sapiens [13] = organism: Homo sapiens; assay: Modulation of human SMN2 mRNAsplicing expressed in HEK293H cells by qRT-PCR analysis; format: cell-based
[14] = Effect on human FOXM1a mRNA splicing expressed in human SMA-derived fibroblasts by RT-qPCR analysis; format: ADME
[15] = target: Voltage-gated inwardly rectifying potassium channel KCNH2 (Homo sapiens, UniProt Q12809); assay: (§1) Inhibition of human ERG at 37 degC
hERG (KCNH2) = hERG (KCNH2) (Homo sapiens, UniProt Q12809); assay: as §1; details: human
[16] = Cardiotoxicity in cynomolgus monkey assessed as prolongation of QTc interval time; format: toxicity, Macaca fascicularis
NIH3T3 = assay: Phototoxicity in mouse 3T3 cells assessed as decrease in cell viability in presence of UV light by neutral red uptake assay; format: cell-based; details: NIH3T3, light or radiation study
[17] = Dark toxicity in mouse 3T3 cells assessed as decrease in cell viability by neutral red uptake assay; format: cell-based, NIH3T3
[18] = Volume of distribution at steady state in cynomolgus monkey; format: ADME, Macaca fascicularis; details: in vivo, read-out: Vdss
[19] = Terminal half life in rat; format: ADME; details: in vivo, read-out: beta t1/2 (converted)
[20] = Terminal half life in cynomolgus monkey; format: ADME, Macaca fascicularis; details: in vivo, read-out: beta t1/2 (converted)
[21] = Drug metabolism in human plasma assessed as dealkylated 2-(4-ethyl-6-methylpyrazolo[1,5-a]pyrazin-2-yl)-9-methyl-7-(piperidin-4-yl)-4H-pyrido[1,2-a]pyrimidin-4-one metabolite formation; format: ADME, cell-free
[22] = Drug metabolism in rat plasma assessed as dealkylated 2-(4-ethyl-6-methylpyrazolo[1,5-a]pyrazin-2-yl)-9-methyl-7-(piperidin-4-yl)-4H-pyrido[1,2-a]pyrimidin-4-one metabolite formation; format: ADME, cell-free
[23] = Drug metabolism in dog plasma assessed as dealkylated 2-(4-ethyl-6-methylpyrazolo[1,5-a]pyrazin-2-yl)-9-methyl-7-(piperidin-4-yl)-4H-pyrido[1,2-a]pyrimidin-4-one metabolite formation; format: ADME, cell-free, Canis lupus familiaris
[24] = Drug metabolism in pig plasma assessed as dealkylated 2-(4-ethyl-6-methylpyrazolo[1,5-a]pyrazin-2-yl)-9-methyl-7-(piperidin-4-yl)-4H-pyrido[1,2-a]pyrimidin-4-one metabolite formation; format: ADME, cell-free, Sus scrofa
[25] = Drug metabolism in cynomolgus monkey plasma assessed as dealkylated 2-(4-ethyl-6-methylpyrazolo[1,5-a]pyrazin-2-yl)-9-methyl-7-(piperidin-4-yl)-4H-pyrido[1,2-a]pyrimidin-4-one metabolite formation; format: ADME, cell-free, Macaca fascicularis
[26] = Drug metabolism in mouse plasma assessed as dealkylated 2-(4-ethyl-6-methylpyrazolo[1,5-a]pyrazin-2-yl)-9-methyl-7-(piperidin-4-yl)-4H-pyrido[1,2-a]pyrimidin-4-one metabolite formation; format: ADME, cell-free
[27] = Drug metabolism in rabbit plasma assessed as dealkylated 2-(4-ethyl-6-methylpyrazolo[1,5-a]pyrazin-2-yl)-9-methyl-7-(piperidin-4-yl)-4H-pyrido[1,2-a]pyrimidin-4-one metabolite formation; format: ADME, cell-free, Oryctolagus cuniculus
[28] = Lipophilicity, log D of the compound at pH 7.4; format: physicochemical; details: buffer
[29] = Clearance in rat at 2 mg/kg, iv administered as single dose; format: ADME, organism-based; details: in vivo
[30] = Volume of distribution at steady state in rat at 2 mg/kg, iv administered as single dose; format: ADME, organism-based; details: in vivo, read-out: Vdss
[31] = Half life in rat at 5 mg/kg, po administered as single dose; format: ADME, organism-based; details: in vivo
[32] = Oral bioavailability in rat at 5 mg/kg administered as single dose; format: ADME, organism-based; details: in vivo
[33] = Half life in cynomolgus monkey at 1.3 mg/kg, po administered as single dose; format: ADME, organism-based, Macaca fascicularis; details: in vivo
[34] = Oral bioavailability in cynomolgus monkey at 1.3 mg/kg administered as single dose; format: ADME, organism-based, Macaca fascicularis; details: in vivo
Mus musculus [35] = assay: In-vivo stabilization of SMN2 mRNA in SMA neonatal delta7 mouse model assessed as increase in free SMN protein levels by measuring free AUC (0 to 42 hrs) at 1 mg/kg, ip dosed once daily starting from postnatal day 3 to postnatal day 9; format: functional
Mus musculus [36] = assay: In-vivo stabilization of SMN2 mRNA in SMA neonatal delta7 mouse model assessed as increase in free SMN protein levels by measuring free AUC (0 to 42 hrs) at 3 mg/kg, ip dosed once daily starting from postnatal day 3 to postnatal day 9; format: functional
[37] = Stabilization of human MADD mRNA splicing expressed in human SMA-derived fibroblasts at 131 to 655 nM by RT-qPCR analysis; format: ADME; details: 0.655 µM
[38] = Stabilization of human APLP2 mRNA splicing expressed in human SMA-derived fibroblasts at 131 to 655 nM by RT-qPCR analysis; format: ADME; details: 0.655 µM
[39] = Stabilization of human […] mRNA splicing expressed in human SMA-derived fibroblasts at 131 to 655 nM by RT-qPCR analysis; format: ADME; details: 0.655 µM
[40] = Stabilization of human STRN3 mRNA splicing expressed in human SMA-derived fibroblasts at 131 to 655 nM by RT-qPCR analysis; format: ADME; details: 0.655 µM
[41] = Chronic toxicity in retina of po dosed cynomolgus monkey assessed as multifocal peripheral retina degeneration after 39 weeks by OCT analysis; format: organism-based, Macaca fascicularis; details: in vivo, 6552 h
[42] = Chronic toxicity in retina of po dosed cynomolgus monkey assessed as formation of microcystic spaces in the inner retinal layers after 39 weeks by OCT analysis; format: organism-based, Macaca fascicularis; details: in vivo, 6552 h
[43] = Chronic toxicity in retina of po dosed cynomolgus monkey assessed as formation of scotopic depressed B-waves after 39 weeks by ERG analysis; format: organism-based, Macaca fascicularis; details: in vivo, 6552 h
[44] = Chronic toxicity in retina of po dosed cynomolgus monkey assessed as effect on outer nuclear layers after 39 weeks by histological analysis; format: organism-based, Macaca fascicularis; details: in vivo, 6552 h
[45] = Chronic toxicity in retina of po dosed cynomolgus monkey assessed as effect on photo-receptor layers after 39 weeks by histological analysis; format: organism-based, Macaca fascicularis; details: in vivo, 6552 h
[46] = Chronic toxicity in retina of po dosed cynomolgus monkey assessed as excess vacuolation of inner nuclear layer after 39 weeks by histological analysis; format: organism-based, Macaca fascicularis; details: in vivo, 6552 h
[47] = Chronic toxicity in retina of po dosed cynomolgus monkey assessed as RPE hypertrophy 39 weeks by histological analysis; format: organism-based, Macaca fascicularis; details: in vivo, 6552 h

Survival motor neuron protein (Homo sapiens), sequence (Q16637 whole entry): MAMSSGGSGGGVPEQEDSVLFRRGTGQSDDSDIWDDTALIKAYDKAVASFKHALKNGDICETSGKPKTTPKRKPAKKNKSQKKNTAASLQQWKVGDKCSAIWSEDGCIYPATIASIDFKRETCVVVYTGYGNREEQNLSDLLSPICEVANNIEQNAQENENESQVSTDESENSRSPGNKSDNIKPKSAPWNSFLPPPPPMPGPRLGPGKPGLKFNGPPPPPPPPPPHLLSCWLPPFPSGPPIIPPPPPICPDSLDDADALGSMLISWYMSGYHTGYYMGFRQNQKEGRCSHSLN
hERG (KCNH2), sequence (Q12809 whole entry): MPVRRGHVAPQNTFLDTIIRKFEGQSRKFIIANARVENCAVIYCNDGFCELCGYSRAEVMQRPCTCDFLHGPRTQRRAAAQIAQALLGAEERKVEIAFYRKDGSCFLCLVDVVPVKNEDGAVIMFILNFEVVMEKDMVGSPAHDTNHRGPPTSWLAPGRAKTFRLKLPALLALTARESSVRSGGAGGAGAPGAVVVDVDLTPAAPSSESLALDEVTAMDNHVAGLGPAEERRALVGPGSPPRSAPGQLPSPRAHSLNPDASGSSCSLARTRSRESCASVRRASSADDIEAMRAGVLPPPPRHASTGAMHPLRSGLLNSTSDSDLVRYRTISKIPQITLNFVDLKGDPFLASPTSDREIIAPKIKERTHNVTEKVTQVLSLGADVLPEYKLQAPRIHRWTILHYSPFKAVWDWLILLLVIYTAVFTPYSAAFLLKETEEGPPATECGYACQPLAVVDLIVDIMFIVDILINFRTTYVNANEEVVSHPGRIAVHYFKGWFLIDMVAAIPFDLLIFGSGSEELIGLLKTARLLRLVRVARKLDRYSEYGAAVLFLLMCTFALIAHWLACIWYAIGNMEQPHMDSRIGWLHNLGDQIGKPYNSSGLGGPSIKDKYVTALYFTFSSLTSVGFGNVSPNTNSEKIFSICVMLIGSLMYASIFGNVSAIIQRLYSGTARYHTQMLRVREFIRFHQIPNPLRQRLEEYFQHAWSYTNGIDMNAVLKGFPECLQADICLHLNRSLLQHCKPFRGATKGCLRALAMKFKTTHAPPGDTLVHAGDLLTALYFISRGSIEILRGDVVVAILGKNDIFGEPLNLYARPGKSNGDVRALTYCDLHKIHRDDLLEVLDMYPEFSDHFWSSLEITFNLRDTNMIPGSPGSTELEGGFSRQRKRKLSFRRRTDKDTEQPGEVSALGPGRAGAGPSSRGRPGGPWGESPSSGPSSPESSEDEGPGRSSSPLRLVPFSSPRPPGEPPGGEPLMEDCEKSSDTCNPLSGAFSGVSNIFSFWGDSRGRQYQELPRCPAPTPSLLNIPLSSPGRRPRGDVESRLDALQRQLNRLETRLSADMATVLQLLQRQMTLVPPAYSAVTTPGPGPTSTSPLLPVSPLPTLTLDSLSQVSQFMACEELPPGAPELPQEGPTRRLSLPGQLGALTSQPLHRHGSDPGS
Voltage-gated inwardly rectifying potassium channel KCNH2, sequence (Q12809 whole entry): as above

EC1.5 (Homo sapiens [1]): 40 nM
Structure (SMILES): CCc1nc(C)cn2nc(-c3cc(=O)n4cc(N5CCN6CCC[C@H]6C5)ccc4n3)cc12
EC1.5 [2]: 163 nM

Vd (in vivo): 20 L/kg
pKa (physchem): 9.1
Structure (SMILES): CCc1nc(C)cn2nc(-c3cc(=O)n4cc(C5CCN(CC)CC5)cc(C)c4n3)cc12

Vd (in vivo): 7 L/kg
pKa (physchem): 7.3
Structure (SMILES): Cc1cn2cc(-c3cc(=O)n4cc(N5CCN6CCC[C@H]6C5)ccc4n3)cc(C(F)(F)F)c2n1

EC1.5 (Homo sapiens [1]): 3 nM
Structure (SMILES): Cc1cn2nc(-c3cc(=O)n4cc(N5CCN6CCC[C@H]6C5)ccc4n3)ccc2n1
EC1.5 [2]: 20 nM

Vd (in vivo): 5 L/kg
pKa (physchem): 7.2
Structure (SMILES): Cc1cn2cc(-c3cc(=O)n4cc(N5CCN(C)CC5)ccc4n3)cc(F)c2n1

Vd (in vivo): 18 L/kg
pKa (physchem): 9.3
Structure (SMILES): Cc1cn2cc(-c3cc(=O)n4cc(N5CCC(N6CCCC6)CC5)ccc4n3)cc(C(F)(F)F)c2n1

Structure (SMILES): Cc1cn2nc(-c3cc(=O)n4cc(N5CCN(O)C6(CC6)C5)ccc4n3)cc(C)c2n1
Activity ([3]; human): Non-Toxic
Activity ([4]; cynomolgus monkey): Non-Toxic

Vd (in vivo): 7 L/kg
pKa (physchem): 7.6
Structure (SMILES): CCc1nc(C)cn2nc(-c3cc(=O)n4cc(N5CCN6CCC[C@@H]6C5)ccc4n3)cc12

Drug metabolism [6]: <= 9 %ID
Drug metabolism [7]: <= 9 %ID
efflux ratio [8]: 18.7
Drug metabolism [9]: <= 9 %ID
EC1.5 (Homo sapiens [1]): < 2 nM
efflux ratio [10]: 20
Structure (SMILES): CCc1nc(C)cn2nc(C3=CC(=O)N4C=C(C5CCNCC5)C=C(C)C4N3)cc12 (stereo unspecified)
EC50 [5]: 23 nM

Vd (in vivo): 20 L/kg
pKa (physchem): 8.9
Structure (SMILES): CCc1nc(C)cn2cc(-c3cc(=O)n4cc(N5CCC(N6CCC6)CC5)cc(C)c4n3)cc12

Vd (in vivo): 15 L/kg
pKa (physchem): 8.4
Structure (SMILES): CCc1nc(C)cn2nc(-c3cc(=O)n4cc(N5CCN6CCC[C@]6(C)C5)ccc4n3)cc12

Vd (in vivo): 15 L/kg
pKa (physchem): 8.6
Structure (SMILES): Cc1cn2cc(-c3cc(=O)n4cc(N5CCN6CCC[C@H]6C5)ccc4n3)cc(C)c2n1

EC1.5 (Homo sapiens [1]): 2 nM
Structure (SMILES): Cc1cn2nc(-c3cc(=O)n4cc(N5CCN6CCC[C@H]6C5)ccc4n3)cc(C)c2n1
EC1.5 [2]: 22 nM

Vd (in vivo): 4 L/kg
pKa (physchem): 7.5
Structure (SMILES): Cc1nc2c(F)cc(-c3cc(=O)n4cc(N5CCN6CCC[C@H]6C5)ccc4n3)cc2o1

Vd (in vivo): 9 L/kg
pKa (physchem): 8.4
Structure (SMILES): Cc1cn2cc(-c3cc(=O)n4cc(N5CCN6CCC[C@@]6(C)C5)ccc4n3)cc(C(F)(F)F)c2n1

Tmax [11]: 5 to 8 h
half-life [12]: 120 h
IC50 ([3]; Homo sapiens): 1850 nM
IC50 ([4]; Macaca fascicularis): 900 nM
Vd [18]: 20 to 30 L/kg
half-life [19]: 19 h
half-life [20]: 42 h
Drug metabolism [21]: Metabolite_Detected
Drug metabolism [22]: Metabolite_Detected
Drug metabolism [23]: Metabolite_Detected
Drug metabolism [24]: Metabolite_Detected
Drug metabolism [25]: Metabolite_Detected
Drug metabolism [26]: Metabolite_Detected
Drug metabolism [27]: Metabolite_Detected
efflux ratio [8]: 2
logD [28]: 2.3
clearance [29]: 25 mL/min/kg
Vd [30]: 29 L/kg
half-life [31]: 19 h
bioavailability [32]: 100%
half-life [33]: 42 h
bioavailability [34]: 52%
Vd (in vivo): 20 to 30 L/kg
pKa (physchem): 10.9
Structure (SMILES): CCc1nc(C)cn2nc(-c3cc(=O)n4cc(C5CCN(C)CC5)cc(C)c4n3)cc12
EC1.5 (Homo sapiens [13]): 23 nM
EC50 [14]: 247 nM
EC50 [5]: 352 nM
IC50 [15]: 1800 nM
IC20 (hERG (KCNH2)): 500 nM
Time [16]: 10 ms
IC50 (NIH3T3): 330 nM
IC50 [17]: > 10000 nM
fAUC (Mus musculus [35]): 73 ng·h/mL
fAUC (Mus musculus [36]): 118 ng·h/mL
EC1.5 [2]: 87 nM
Activity [37]: Non-Toxic
Activity [38]: Non-Toxic
Activity [39]: Non-Toxic
Activity [40]: Non-Toxic
Activity [41]: Toxic
Activity [42]: Toxic
Activity [43]: Toxic
Activity [44]: Toxic
Activity [45]: Toxic
Activity [46]: Toxic
Activity [47]: Toxic
